According to PubChem BioAssay (NCI):
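Tested at 5 concentrations; 48 h exposure; 96-well plates; endpoints linearly interpolated, else capped at highest concentration. Abbreviation: GI50, concentration required for 50% inhibition of growth. TGI marks complete inhibition of growth.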

Tests used:
Assay in all cases: NCI tumour cell line growth inhibition, 48 h
SK-OV-3 ovarian = system: SK-OV-3 ovarian
HOP-62 NSCLC = system: HOP-62 NSCLC
M14 melanoma = system: M14 melanoma
COLO 205 colon = system: COLO 205 colon
RXF 393 renal = system: RXF 393 renal
SNB-75 CNS = system: SNB-75 CNS
MCF7 breast = system: MCF7 breast
SF-268 CNS = system: SF-268 CNS
HCT-116 colon = system: HCT-116 colon
OVCAR-8 ovarian = system: OVCAR-8 ovarian
SNB-19 CNS = system: SNB-19 CNS
CAKI-1 renal = system: CAKI-1 renal
PC-3 prostate = system: PC-3 prostate
CCRF-CEM leukemia = system: CCRF-CEM leukemia
TK-10 renal = system: TK-10 renal
NCI/ADR-RES ovarian = system: NCI/ADR-RES ovarian
MDA-MB-231 breast = system: MDA-MB-231 breast
NCI-H23 lung = system: NCI-H23 lung
HL-60(TB) leukemia = system: HL-60(TB) leukemia
RPMI-8226 leukemia = system: RPMI-8226 leukemia
BT-549 breast = system: BT-549 breast
UACC-257 melanoma = system: UACC-257 melanoma
SK-MEL-2 melanoma = system: SK-MEL-2 melanoma
UO-31 renal = system: UO-31 renal
SN12C renal = system: SN12C renal
SR leukemia = system: SR leukemia
U251 CNS = system: U251 CNS
MDA-MB-435 = system: MDA-MB-435
K-562 leukemia = system: K-562 leukemia
KM12 colon = system: KM12 colon
HOP-92 NSCLC = system: HOP-92 NSCLC
HCT-15 colon = system: HCT-15 colon
SF-539 CNS = system: SF-539 CNS
SK-MEL-5 melanoma = system: SK-MEL-5 melanoma
SK-MEL-28 melanoma = system: SK-MEL-28 melanoma
HT29 colon = system: HT29 colon
OVCAR-4 ovarian = system: OVCAR-4 ovarian
786-0 renal = system: 786-0 renal
ACHN renal = system: ACHN renal
NCI-H226 lung = system: NCI-H226 lung
UACC-62 melanoma = system: UACC-62 melanoma
NCI-H522 lung = system: NCI-H522 lung
DU-145 prostate = system: DU-145 prostate
HCC-2998 colon = system: HCC-2998 colon
A549 NSCLC = system: A549 NSCLC
SW-620 colon = system: SW-620 colon
OVCAR-3 ovarian = system: OVCAR-3 ovarian
NCI-H460 lung = system: NCI-H460 lung
EKVX NSCLC = system: EKVX NSCLC
SF-295 CNS = system: SF-295 CNS
MOLT-4 leukemia = system: MOLT-4 leukemia
A498 renal = system: A498 renal
HS 578T breast = system: HS 578T breast
LOX IMVI melanoma = system: LOX IMVI melanoma
IGROV1 ovarian = system: IGROV1 ovarian
OVCAR-5 ovarian = system: OVCAR-5 ovarian
MALME-3M melanoma = system: MALME-3M melanoma
T-47D breast = system: T-47D breast

O=[N+]([O-])c1ccc2c(c1)C(=NO)c1cc([N+](=O)[O-])ccc1-2
GI50 (SK-OV-3 ovarian): > 100 µM
TGI (SK-OV-3 ovarian): > 100 µM
GI50 (HOP-62 NSCLC): 46.5 µM
TGI (HOP-62 NSCLC): > 100 µM
GI50 (M14 melanoma): 21.5 µM
TGI (M14 melanoma): > 100 µM
GI50 (COLO 205 colon): 39.5 µM
TGI (COLO 205 colon): > 100 µM
GI50 (RXF 393 renal): > 100 µM
TGI (RXF 393 renal): > 100 µM
GI50 (SNB-75 CNS): 7.18 µM
TGI (SNB-75 CNS): 75.8 µM
GI50 (MCF7 breast): 4.92 µM
TGI (MCF7 breast): > 100 µM
GI50 (SF-268 CNS): 33.6 µM
TGI (SF-268 CNS): > 100 µM
GI50 (HCT-116 colon): 6.71 µM
TGI (HCT-116 colon): > 100 µM
GI50 (OVCAR-8 ovarian): 74.7 µM
TGI (OVCAR-8 ovarian): > 100 µM
GI50 (SNB-19 CNS): > 100 µM
TGI (SNB-19 CNS): > 100 µM
GI50 (CAKI-1 renal): 6.46 µM
TGI (CAKI-1 renal): > 100 µM
GI50 (PC-3 prostate): 24.2 µM
TGI (PC-3 prostate): > 100 µM
GI50 (CCRF-CEM leukemia): 13.6 µM
TGI (CCRF-CEM leukemia): > 100 µM
GI50 (TK-10 renal): 12.6 µM
TGI (TK-10 renal): > 100 µM
GI50 (NCI/ADR-RES ovarian): 16.3 µM
TGI (NCI/ADR-RES ovarian): > 100 µM
GI50 (MDA-MB-231 breast): 36.3 µM
TGI (MDA-MB-231 breast): > 100 µM
GI50 (NCI-H23 lung): 25.3 µM
TGI (NCI-H23 lung): > 100 µM
GI50 (HL-60(TB) leukemia): 4.19 µM
TGI (HL-60(TB) leukemia): 22.9 µM
GI50 (RPMI-8226 leukemia): 29.4 µM
TGI (RPMI-8226 leukemia): > 100 µM
GI50 (BT-549 breast): 50.8 µM
TGI (BT-549 breast): > 100 µM
GI50 (UACC-257 melanoma): 62.6 µM
TGI (UACC-257 melanoma): > 100 µM
GI50 (SK-MEL-2 melanoma): > 100 µM
TGI (SK-MEL-2 melanoma): > 100 µM
GI50 (UO-31 renal): 3.12 µM
TGI (UO-31 renal): 23.5 µM
GI50 (SN12C renal): 20.5 µM
TGI (SN12C renal): > 100 µM
GI50 (SR leukemia): 2.88 µM
TGI (SR leukemia): 9.86 µM
GI50 (U251 CNS): 10.7 µM
TGI (U251 CNS): > 100 µM
GI50 (MDA-MB-435): 22.5 µM
TGI (MDA-MB-435): > 100 µM
GI50 (K-562 leukemia): 11.7 µM
TGI (K-562 leukemia): > 100 µM
GI50 (KM12 colon): 18.6 µM
TGI (KM12 colon): > 100 µM
GI50 (HOP-92 NSCLC): 53.7 µM
TGI (HOP-92 NSCLC): > 100 µM
GI50 (HCT-15 colon): 8.92 µM
TGI (HCT-15 colon): > 100 µM
GI50 (SF-539 CNS): 37.7 µM
TGI (SF-539 CNS): > 100 µM
GI50 (SK-MEL-5 melanoma): 12.1 µM
TGI (SK-MEL-5 melanoma): 34 µM
GI50 (SK-MEL-28 melanoma): 43.4 µM
TGI (SK-MEL-28 melanoma): > 100 µM
GI50 (HT29 colon): 19.5 µM
TGI (HT29 colon): > 100 µM
GI50 (OVCAR-4 ovarian): 12.7 µM
TGI (OVCAR-4 ovarian): > 100 µM
GI50 (786-0 renal): 10.8 µM
TGI (786-0 renal): > 100 µM
GI50 (ACHN renal): 4.98 µM
TGI (ACHN renal): 39.7 µM
GI50 (NCI-H226 lung): 10.9 µM
TGI (NCI-H226 lung): 29.1 µM
GI50 (UACC-62 melanoma): 11.5 µM
TGI (UACC-62 melanoma): > 100 µM
GI50 (NCI-H522 lung): 1.62 µM
TGI (NCI-H522 lung): 11 µM
GI50 (DU-145 prostate): 55.1 µM
TGI (DU-145 prostate): > 100 µM
GI50 (HCC-2998 colon): 37.1 µM
TGI (HCC-2998 colon): > 100 µM
GI50 (A549 NSCLC): 7.23 µM
TGI (A549 NSCLC): > 100 µM
GI50 (SW-620 colon): 12.4 µM
TGI (SW-620 colon): > 100 µM
GI50 (OVCAR-3 ovarian): 68.4 µM
TGI (OVCAR-3 ovarian): > 100 µM
GI50 (NCI-H460 lung): 4.82 µM
TGI (NCI-H460 lung): > 100 µM
GI50 (EKVX NSCLC): 12.9 µM
TGI (EKVX NSCLC): > 100 µM
GI50 (SF-295 CNS): 13.5 µM
TGI (SF-295 CNS): > 100 µM
GI50 (MOLT-4 leukemia): 3.25 µM
TGI (MOLT-4 leukemia): 7.61 µM
GI50 (A498 renal): 54 µM
TGI (A498 renal): > 100 µM
GI50 (HS 578T breast): > 100 µM
TGI (HS 578T breast): > 100 µM
GI50 (LOX IMVI melanoma): 13.8 µM
TGI (LOX IMVI melanoma): > 100 µM
GI50 (IGROV1 ovarian): 2.52 µM
TGI (IGROV1 ovarian): 7.6 µM
GI50 (OVCAR-5 ovarian): > 100 µM
TGI (OVCAR-5 ovarian): > 100 µM
GI50 (MALME-3M melanoma): 11.7 µM
TGI (MALME-3M melanoma): > 100 µM
GI50 (T-47D breast): 79 µM
TGI (T-47D breast): > 100 µM
